The text below walks through data of patent US12263248B2, “Compounds and compositions for intracellular delivery of therapeutic agents” (ModernaTX, Inc., priority 2018, dated 2025).

Data set [1] can be described thus: One month toxicology evaluation: C5b9 and MCP-1 serum concentration in cynomolgus monkeys. The data set is classed as in vivo. The note with it: 1 mg/kg mRNA, day 1 and day 29, vs PBS. From the text: FIGS. 33A and 33B are a pair of graphs summarizing the results of a one month toxicology evaluation in rats and non-human primates.
The test system of data set [2] is C5b9. Kind of data set: Complement activation indicators in non-human primates. The data set is classed as in vivo, Cynomolgus monkeys. The protocol:
(§1) The tolerability and efficacy of nanoparticle compositions to non-human primates was also investigated using a sample formulation including Compound 18. The formulation was prepared according to the standard MC3 formulation described above and included an hEPO mRNA. Primates were administered a single dose of 0.05 (Group 1), 0.3 (Group 2), or 1.0 (Group 3) mpk via intravenous infusion for 60 minutes. Three primates were administered each dose. Expression of hEPO was measured prior to dosing and at 2, 6, 24, 48, and 96 hours post-treatment (Table 26). Table 28 includes levels of indicators of complement activation, while Table 29 includes cytokine induction data.
(§2) Serum C5b9 levels: C5b9 sample analysis was performed using an ELISA method. The kit used was Human C5b-9 ELISA Set and Reagent Set B from BD Bioscience. Study samples were analyzed in singlicate diluted 1/100.

The subject of data set [3] is human hepatocytes. Kind of data set: Metabolite profiling of Compound 18 with human hepatocytes. More on the design: key to Detection in incubation: +: Detected; ND: Not detected. Conditions: Compound 18 (10 μM), human hepatocytes. In kind it is in vitro ADME. The protocol:
The results of metabolic profiling and characterization for compound 18 incubated with human hepatocytes or human plasma are summarized in Tables 41 and 42, respectively.

Data set [4] can be described thus: Metabolite identification of Compound 18 in human plasma. In kind it is in vitro ADME. More on the design: key to Detection in incubation: +: Detected; ND: Not detected. Conditions: for Detection in incubation: Compound 18 (10 μM), human plasma. How it is done:
Metabolite Identification: Compound 18 (10 μM) was incubated with human plasma (29.0 mg protein/incubation) in incubation mixtures (200 μL final incubation volume) that consisted of 50/50v/v neat plasma (undiluted)/substrate solution in 50 mM phosphate buffer, pH 7.4). The plasma was obtained from male and female donors and contained K2EDTA anticoagulant. Reactions were started by addition of the substrate solution to human plasma and were stopped at four designated time points (0, 30, 60 and 90 min) by the addition of 600 μL of stop reagent (acetonitrile). Stopped incubation samples were centrifuged (e.g., 10,000×g for 10 min at 10° C.) and the supernatant fractions were analyzed by LC-MS/MS to characterize the metabolites formed from compound 18. Additional incubations were performed with the positive control procaine (5 μM) to establish competency of the test system. Samples were analyzed by LC-MS/MS.

Data set [5] is described as follows: One-month toxicological evaluation with weekly dosing in rat. The data set is classed as in vivo, Sprague Dawley rat. Conditions: weekly dosing 0.05, 0.5 and 2 mg/kg, one-month study. How it is done:
(§3) Serum ALT and AST levels: Samples were analyzed using a Modular Analytics analyzer.
(§4) Next, tolerability and safety of the compound 18-based LNPs in vivo was tested. A full toxicological evaluation of compound 18-based LNPs in both Sprague Dawley rat and cynomolgus monkey was performed using a standard one-month study with weekly dosing at three dose levels in each species. Rats were dosed at 0.05, 0.5, and 2 mg/kg and a non-human primates was dosed at 0.1, 0.3, and 1 mg/kg. LNP-related toxicities associated with MC3-based LNP systems are generally associated with immunological (cytokine and complement activation) and hepatic injury. […] FIGS. 32 and 33 highlight the day 30 levels of alanine transferase (ALT, FIG. 32A) and aspartate aminotransferase (AST, FIG. 32B), two indicators of liver damage.

The nature of data set [6]: One-month toxicological evaluation with weekly dosing in cynomolgus monkey. In kind it is in vivo. The protocol: as §3, §2
bDNA for measurement of mRNA levels: mRNA sample analysis (bDNA method) was performed using the QuantiGene® 2.0 Reagent System kit from Affymetrix. Study samples were lysed prior to analysis using the QuantiGene Sample Processing Kit (Blood samples). Study samples were analyzed in duplicate diluted between 1/100 and 1/1250000.
as §4

Data set [7] concerns ApoE-mediated LDLr dependent uptake. Kind of data set: Expression in ApoE knockout mice and LDLr knockout mice. The note with it: mouse, in vivo.
The nature of data set [8]: Tolerability of Compound 18 formulation in non-human primates, single dose. In kind it is in vivo. The protocol: as §1
In general, lower doses were better tolerated. High doses induced body temperature elevation and hunched posture, which is similar to the behavior observed for primates administered higher doses of MC3 formulations.

For data set [9] the following is noted: Sprague Dawley, rat, in vivo, iv, 5 mg/kg, 20 min.
Protocol: Sprague Dawley rats were administered with nanoparticles of the disclosure via i.v. bolus at 5 mpk. The nanoparticle contained two mRNA encoding a broadly neutralizing influenza antibody in a 2:1 ratio.
Data set [10] is described as follows: Lipid tissue accumulation in NHP after a single dose. The note with it: 12 hours post dose.
Data set [11] can be described thus: MC3 single cell necrosis in rat liver and liver enzymes. The data set is classed as in vivo, rats. Conditions: rat liver. The protocol: FIG. 37 is a series of graphs illustrating MC3 single cell necrosis in rat liver and liver enzyme. The top row is a pair of images of livers of rats administered with 0.3 mg/kg of a […] (LNP) not containing an mRNA (right) and PBS (phosphate buffered saline) as a control (left). The bottom row is a pair of graphs showing expression of ALT (left) and AST(right) in the liver following administration of a 0.3 mg/kg of a MC3-based LNP containing an mRNA.

[12] abbreviates: single dose 0.05, 0.3 or 1.0 mpk, i.v. infusion 60 minutes.
Setting [13] is: 0.3 mg/kg of MC3-based LNP containing an mRNA.

Take `CCCCCCCCCOC(=O)CCCCCCCN(CCO)CCCCCCCC(=O)OC(CCCCCCCC)CCCCCCCC` [Compound 18, Heptadecan-9-yl 8-((2-hydroxyethyl)(8-(nonyloxy)-8-oxooctyl)amino)octanoate]: the C5b9 serum concentration entry in data set [1] (all timepoints) was “No statistical difference”. Besides, in data set [1] (any timepoint other than the one marked *p<0.05), the MCP-1 serum concentration entry was “no statistical difference”. Moreover, the C3a in [2] (0.05 mpk, 2 h) turned out to be 19236 ng/mL; in [2] (0.05 mpk, Predose) it was 10600 ng/mL; in data set [2] (0.3 mpk, 2 h), 42897 ng/mL; in data set [2] (0.3 mpk, Predose), 9827 ng/mL; in data set [2] (1.0 mpk, 2 h), 75936 ng/mL; in data set [2] (1.0 mpk, Predose), 12792 ng/mL. The C5b9 in data set [2] (0.05 mpk, 24 h) stood at 265 ng/mL; in data set [2] (0.05 mpk, Day 5), 163 ng/mL; in data set [2] (0.3 mpk, 24 h), 614 ng/mL; in [2] (0.3 mpk, Day 5), 405 ng/mL; in [2] (1.0 mpk, 24 h), 4798 ng/mL; in data set [2] (1.0 mpk, Day 5) it was 534 ng/mL. Besides, the Detection in incubation result in [3] (0 min), in [3] (60 min), in [3] (120 min), in [3] (240 min), in data set [4] (0 min) and in data set [4] (30 min) was “+” each time. The Detection in incubation result in data set [4] (60 min) and in [4] (90 min) was “+” throughout. Besides, the “initial step of metabolism” value in data set [4] (in vitro metabolite identification studies) is on record as “primary ester hydrolysis to compound 166”. Besides, the adverse findings entry in data set [5] is listed as “no adverse findings”. Besides, the “ALT and AST levels” value in data set [6] (1 mg/kg dose, day 30) was “at the same level as the control”. Further, in [6] (after dose 1 or dose 5), the C5b9 levels result is “no significant change”. In data set [7], the “expression in ApoE knockout mice and LDLr knockout mice” value is given as “almost complete loss in expression”. Besides, the reticulocyte counts result in data set [8] (all groups, Day 5) is “marked increase”. Besides, in [8] (non-human primates, single dose), the “tolerability of the formulation” value is given as “tolerated similarly to the MC3 formulation”. Moreover, the “Complement activation and cytokine release (IL-6 and MCP-1)” value in data set [8] (single dose 0.05, 0.3 or 1.0 mpk) was “dose-related and reversible”. Moreover, the “Alanine aminotransferase (ALT) levels” value in data set [8] (setting [12]) was “did not increase”. In addition, in [8] (setting [12]), the “Aspartate aminotransferase (AST)” value was “increased in the high dose group on Day 2 and returned to baseline by Day 5”. Also, in data set [9], the “Clinical Observations” value is 20 min- Flushed ears and paws. For the same compound, in [10], the “lipid levels in tissues” value is “significantly lower levels”.
`CCCCC/C=C\C/C=C\CCCCCCCCC(CCCCCCCC/C=C\C/C=C\CCCCC)OC(=O)CCCN(C)C` [MC3, DLin-MC3-DMA, reference compound]: the pathology entry in [11] (0.3 mg/kg MC3-based LNP) is on record as “evidence of necrosis”. Further, in data set [11] (setting [13]), the ALT entry is listed as “elevated” and the AST entry is reported as “elevated”.
